How the values were obtained:
[1] = Molar enthalpy of transition or fusion; details: Crystal; DSC
[2] = molar heat capacity at constant pressure; details: 101.33 kPa, Small sample (50 mg) DSC
[3] = Crystal; DTA

[Br-].[Br-].[Br-].[Pr+3] [praseodymium(III) bromide]
Details	Molar enthalpy of transition or fusion [kcal/mol]	Normal melting temperature [°C]
[1]	11.1	–
[3]	–	687

molar heat capacity at constant pressure [J/K/mol], [2]
Details	Crystal	Liquid
298.15 K	105.37	–
300 K	105.39	–
331 K	105.87	–
400 K	106.93	–
500 K	108.46	–
600 K	109.99	–
700 K	111.52	–
800 K	113.05	–
900 K	114.58	–
960 K	115.5	141.39
1000 K	–	141.39
1065 K	–	141.39
1100 K	–	141.39
1191 K	–	141.39
1200 K	–	141.39
1300 K	–	141.39

— the NIST ThermoML archive (doi:10.1021/je101139k)
